According to US9212348B2, “Method for producing hematopoietic stem cells using pyrazole compounds” (NISSAN CHEMICAL INDUSTRIES, LTD., priority 2010, dated 2015):

Tested on: CD34+CD38- cells
Assay: Assay Example 3: expansion of CD34+CD38- cells using human cord blood-derived CD34+ cells (Table 22)
Format: cell-based
Conditions: based on number of CD34+CD38- cells in absence of compound; 0.01 to 10 μg/mL compound; 100 ng/mL SCF and 20 ng/mL TPO; 7 days
Protocol: Human cord blood-derived CD34^+ cells purchased from the same supplier as in Assay Example 1 were plated on a 24-well plate (Corning) (10000 cells/1 mL/well). As the culture medium, StemSpan SFEM (StemCell Technologies) containing 100 ng/mL SCF (Wako Pure Chemical Industries) in terms of final concentration and 20 ng/mL TPO (PeproTech) in terms of final concentration was used, and Compounds Nos. 1-01 to 4-91 dissolved in dimethyl sulfoxide were added in an amount of 0.1% (v/v) to a final concentration of 0.01 to 10 μg/mL. As a negative control, the medium containing 0.1% (v/v) dimethyl sulfoxide was used.
After the cells were incubated in liquid culture at 37° C. for 7 days in a CO2 incubator (5% CO2), the number of viable cells was counted by trypan blue assay. The number of CD34^+CD38^− cells was calculated in the same manner as in Assay Example 1.

SMILES	Expansion efficiency
CC(C)C1=NN(C(C)(C)Cc2ccccc2)C(=O)C1Br (stereo not shown) [Compound No. 3-47, 4-bromo-3-isopropyl-1-(2-methyl-1-phenylpropan-2-yl)-1H-pyrazol-5(4H)-one]	C (C for expansion efficiencies of at least 1.5 and less than 3)
COC(=O)CC1=NN(C(C)(C)c2ccccc2)C(=O)C1 [Compound No. 4-01, methyl 2-(5-oxo-1-(2-phenylpropan-2-yl)-4,5-dihydro-1H-pyrazol-3-yl)acetate]	C (C for expansion efficiencies of at least 1.5 and less than 3)
COC(=O)c1ccc(-c2c(C(C)C)nn(C(C)(C)Cc3ccccc3)c2O)cc1 [Compound No. 4-23, methyl 4-(5-hydroxy-3-isopropyl-1-(2-methyl-1-phenylpropan-2-yl)-1H-pyrazol-4-yl)benzoate]	A (A for expansion efficiencies of 4 or greater)
CC(C)C1=NN(C(C)(C)Cc2ccc(Br)cc2)C(=O)C1 [Compound No. 3-12, 1-(1-(4-bromophenyl)-2-methylpropan-2-yl)-3-isopropyl-1H-pyrazol-5(4H)-one]	B (B for expansion efficiencies of at least 3 and less than 4)
CC(C)(Cc1ccccc1)N1N=C(c2ccccc2)CC1=O [Compound No. 3-16, 1-(2-methyl-1-phenylpropan-2-yl)-3-phenyl-1H-pyrazol-5(4H)-one]	A (A for expansion efficiencies of 4 or greater)
CCCCCCc1ccc(-c2c(C(C)C)nn(C(C)(C)Cc3ccc(C)cc3)c2O)cc1 [Compound No. 3-07, 4-(4-hexylphenyl)-3-isopropyl-1-(2-methyl-1-p-tolylpropan-2-yl)-1H-pyrazol-5-ol]	A (A for expansion efficiencies of 4 or greater)
CCCCCCc1ccc(-c2c(C#N)nn(C(C)(C)Cc3ccc(C)cc3)c2O)cc1 [Compound No. 4-86, 4-(4-Hexylphenyl)-5-hydroxy-1-(2-methyl-1-(p-tolyl)propan-2-yl)-1H-pyrazole-3-carbonitrile]	C (C for expansion efficiencies of at least 1.5 and less than 3)
CON=C(C)c1c(C(C)C)nn(C(C)(C)Cc2ccccc2)c1O [Compound No. 4-89, 1-(5-Hydroxy-3-isopropyl-1-(2-methyl-1-phenylpropan-2-yl)-1H-pyrazol-4-yl)ethanone O-methyl oxime]	C (C for expansion efficiencies of at least 1.5 and less than 3)

Tested on: not given
Assay: not given
Conditions: not given

SMILES	melting point [°C]
CCCCCCc1ccc(-c2cnn(C(C)(C)Cc3ccc(C)cc3)c2O)cc1 [Compound No. 4-90, 4-(4-Hexylphenyl)-1-(2-methyl-1-(p-tolyl)propan-2-yl)-1H-pyrazol-5-ol]	149 to 151
CCCCCCc1ccc(-c2c(C#N)nn(C(C)(C)Cc3ccc(C)cc3)c2O)cc1 [Compound No. 4-86, 4-(4-Hexylphenyl)-5-hydroxy-1-(2-methyl-1-(p-tolyl)propan-2-yl)-1H-pyrazole-3-carbonitrile]	140 to 142
